For one experiment, the system named is HIV-1ADA. Briefly: antiviral assay in monocyte-macrophage cultures (p24). It counts as cell-based. To be noted: Human immunodeficiency virus 1. As to the method:
Initial anti-HIV screening was performed with CEM-SS cells and HIV-1RFusing the XTT cytoprotection assay as previously described (Weislow et al., J. National Cancer Inst. 81: 577-586, (1989)). HIV-1 isolates included common laboratory stains (RF, IIIB and MN), as well as a panel of HIV-1 clinical isolates (Cushman et al., J. Med. Chem. 37: 3040-3050, (1994)). The pyridone-resistant HIV-1A17 isolate (Nunberg et al., J. Virol., 65: 4887-4892 (1991)) was obtained from Emilio Emini at Merck Sharpe and Dohme Laboratories. Phytohemagglutinin-stimulated human peripheral blood lymphocytes (PBLs) and fresh monocyte-macrophage (Mono/MF) cultures were prepared and utilized in antiviral assays as previously described (Rice et al., Proc. Nat'l. Academy Science, USA 90: 9721-9724, (1993)); (Cushman et al., J. Med. Chem. 37: 3040-3050, (1994)). EC50 values for these cultures indicate the drug concentration that provided a 50% reduction in viral p24 production. […] The compounds can be synthesized according to the teachings of Singh et al., Sulfur Letters 8: 107-114, (1988). The 4,5-cis-dihydroxy(1,1-dioxy-1,2,-dithiohexane) compound (NSC 624151) has been abbreviated as 624151 for convenience. MT-2, MT-4, U1, HeLa-CD4-LTR-β-gal and 174xCEM cells were obtained from the AIDS Research and Reference Program (National Institute of Allergy and Infectious Disease, National Institutes of Health, Bethesda, Md. USA), as were the HIV-2MS and the AZT-resistant HIV-1G910-6 isolates. […]

For experiment [1], the system named is attachment of HIV-1 to fresh human PBLs. Briefly: virus attachment assay, HIV-1RF to PBLs (p24-based). It counts as cell-based. As to the method:
(§1) Binding of HIV-1RF to PBLs was measured by a p24-based assay (Rice, et al., Proc. Nat'l. Academy of Science USA 90: 9721-9724, (1993)). Briefly, 5×10^5 PBLs were incubated with a concentrated stock of virus for 30 min. at 37° C. in the absence or presence of various concentrations of 624151, the unbound virus was washed away, and the cell-associated virus was solubilized in 1% Triton X-100, 1% BSA and analyzed by the p24 antigen capture assay as previously described. The binding of gp120to CD4 was analyzed using an antigen capture ELISA. All steps of the assay were carried out according to the manufacturer's protocols.
^.dagger. Attachment of HIV1 to fresh human PBLs, binding of gp120 to […]

For the next experiment, the target named is T1, gp120-CD4 (UniProt P01730+P03375).
T1 construct: purchased
The experiment in a line: gp120-CD4 binding, antigen capture ELISA. Also on record: species or system HIV-1. As for the experimental part: as §1
^.dagger. Attachment of HIV1 to fresh human PBLs, binding of gp120 to
CD4, and the effects of compounds on HIV1 RT and protease were quantitate

For another experiment, the target named is T2, HIV-1 p7NC protein (Human immunodeficiency virus type 1 group M subtype B, UniProt P04591).
T2 construct: recombinant HIV-1 p7NC protein
The experiment in a line: Trp37 zinc finger fluorescence assay (zinc ejection from p7NC). It counts as biochemical. To be noted: for p7NC Trp37 Assay (RFU): 25 μM compound; for loss of Trp37 fluorescence of p7NC: 25 μM.

Structures are written as SMILES. Like-named read-outs stand apart in the source and are kept apart here.

On to `O=S1(=O)C[C@H](O)[C@H](O)CS1` (relative stereo) [NSC 624151, cis-1,1-dioxo[1,2]dithiane-4,5-diol], for which the EC50 in the experiment with HIV-1ADA (HIV-1ADA, monocyte/macrophage cultures, 50% reduction in p24, read-out: Mo/M.PHI. EC50) was 8 µM; in the experiment on HIV-1ADA (Mo/M.PHI., ADA, cell-free p24, Table 2, read-out: EC50), 2.1 µM. Moreover, the Attachment result in experiment [1] (Table 6) is “NI100μμ”. For the same compound, the “inhibition of attachment of HIV-1 virions to target cells” value in experiment [1] (in words) is on record as “did not inhibit”. The “inhibition of gp120-CD4 interaction” value at gp120-CD4 (in words) is given as “did not inhibit”. Also, the IC50 on gp120-CD4 (read-out: gp120-CD4 ID50) was over 100 µM. Also, the “p7NC Trp37 Assay (RFU)” value on HIV-1 p7NC protein (0 min) stood at 295 RFU; at HIV-1 p7NC protein (3 min), 136 RFU; on HIV-1 p7NC protein (10 min) it was 75 RFU; at HIV-1 p7NC protein (30 min), 42 RFU. The “loss of Trp37 fluorescence of p7NC” value was “time dependent loss of fluorescence” on HIV-1 p7NC protein (FIG. 1(A), in words) and “time-dependent loss of fluorescence” at HIV-1 p7NC protein (FIG. 1(A), in words, listed as 624151). For the same compound, at HIV-1 p7NC protein (FIG. 1(A), in words), the zinc ejection result is given as “promotes zinc ejection”. The “reactivity with the zinc fingers” value on HIV-1 p7NC protein (in words) is recorded as “reacted aggressively with the p7NC protein zinc fingers”.
